{
  "source": "ChEMBL document CHEMBL1201862",
  "about": "“PubChem BioAssay data set” (2004)",
  "experiment_in_all_cases": "NCI-60 cell line screen, 48 h",
  "key": {"PC-3": {"tested_on": "PC-3"}, "UACC-62": {"tested_on": "UACC-62"}, "786-0": {"tested_on": "786-0"}, "Malme-3M": {"tested_on": "Malme-3M"}, "UO-31": {"tested_on": "UO-31"}, "HCT-116": {"tested_on": "HCT-116"}, "T47D": {"tested_on": "T47D"}, "HL-60": {"tested_on": "HL-60"}, "A498": {"tested_on": "A498"}, "Hs-578T": {"tested_on": "Hs-578T"}, "HT-29": {"tested_on": "HT-29"}, "K562": {"tested_on": "K562"}, "HCT-15": {"tested_on": "HCT-15"}, "ACHN": {"tested_on": "ACHN"}, "RPMI-8226": {"tested_on": "RPMI-8226"}, "SK-MEL-2": {"tested_on": "SK-MEL-2"}, "NCI-H460": {"tested_on": "NCI-H460"}, "OVCAR-3": {"tested_on": "OVCAR-3"}, "MOLT-4": {"tested_on": "MOLT-4"}, "SNB-19": {"tested_on": "SNB-19"}, "KM12": {"tested_on": "KM12"}, "MCF7": {"tested_on": "MCF7"}, "MDA-MB-435": {"tested_on": "MDA-MB-435"}, "DU-145": {"tested_on": "DU-145"}, "HOP-92": {"tested_on": "HOP-92"}, "A549": {"tested_on": "A549"}, "LOX IMVI": {"tested_on": "LOX IMVI"}, "RXF 393": {"tested_on": "RXF 393"}, "BT-549": {"tested_on": "BT-549"}, "COLO 205": {"tested_on": "COLO 205"}, "IGROV-1": {"tested_on": "IGROV-1"}, "SK-MEL-28": {"tested_on": "SK-MEL-28"}, "CAKI-1": {"tested_on": "CAKI-1"}, "OVCAR-5": {"tested_on": "OVCAR-5"}, "SF-295": {"tested_on": "SF-295"}, "M14": {"tested_on": "M14"}, "SF-268": {"tested_on": "SF-268"}, "SR": {"tested_on": "SR"}, "NCI-H226": {"tested_on": "NCI-H226"}, "HOP-62": {"tested_on": "HOP-62"}, "TK-10": {"tested_on": "TK-10"}, "CCRF-CEM": {"tested_on": "CCRF-CEM"}, "NCI/ADR-RES": {"tested_on": "NCI/ADR-RES"}, "SW-620": {"tested_on": "SW-620"}, "SK-MEL-5": {"tested_on": "SK-MEL-5"}, "UACC-257": {"tested_on": "UACC-257"}, "HCC 2998": {"tested_on": "HCC 2998"}, "OVCAR-4": {"tested_on": "OVCAR-4"}, "NCI-H23": {"tested_on": "NCI-H23"}, "OVCAR-8": {"tested_on": "OVCAR-8"}, "SNB-75": {"tested_on": "SNB-75"}, "U-251": {"tested_on": "U-251"}, "SF-539": {"tested_on": "SF-539"}, "NCI-H522": {"tested_on": "NCI-H522"}, "EKVX": {"tested_on": "EKVX"}},
  "note": "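Results reflect a 48-hour exposure of cells in 96-well plates to compound at five concentrations. GI50 marks 50% less growth.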 Activity calls are given as the source filed them. No stated cut-off is given here; in the data, active = GI50 up to about 1.1 µM and inactive = higher.",
  "data": [
    {"smiles": "O=C(O)c1nc2ccccc2nc1Nc1ccc(F)cc1", "values": [
      {"measurement": "GI50", "setting": "PC-3", "value": "27.9 µM (inactive)"},
      {"measurement": "GI50", "setting": "UACC-62", "value": "27.2 µM (inactive)"},
      {"measurement": "GI50", "setting": "786-0", "value": "40.9 µM (inactive)"},
      {"measurement": "GI50", "setting": "Malme-3M", "value": "37.9 µM (inactive)"},
      {"measurement": "GI50", "setting": "UO-31", "value": "43 µM (inactive)"},
      {"measurement": "GI50", "setting": "HCT-116", "value": "30.8 µM (inactive)"},
      {"measurement": "GI50", "setting": "T47D", "value": "28.4 µM (inactive)"},
      {"measurement": "GI50", "setting": "HL-60", "value": "25.7 µM (inactive)"},
      {"measurement": "GI50", "setting": "A498", "value": "40 µM (inactive)"},
      {"measurement": "GI50", "setting": "Hs-578T", "value": "29.2 µM (inactive)"},
      {"measurement": "GI50", "setting": "HT-29", "value": "42.1 µM (inactive)"},
      {"measurement": "GI50", "setting": "K562", "value": "32.1 µM (inactive)"},
      {"measurement": "GI50", "setting": "HCT-15", "value": 26.7, "unit": "µM"},
      {"measurement": "GI50", "setting": "ACHN", "value": "26.9 µM (inactive)"},
      {"measurement": "GI50", "setting": "RPMI-8226", "value": "23.1 µM (inactive)"},
      {"measurement": "GI50", "setting": "SK-MEL-2", "value": "26.9 µM (inactive)"},
      {"measurement": "GI50", "setting": "NCI-H460", "value": "34 µM (inactive)"},
      {"measurement": "GI50", "setting": "OVCAR-3", "value": "15.3 µM (inactive)"},
      {"measurement": "GI50", "setting": "MOLT-4", "value": "28.3 µM (inactive)"},
      {"measurement": "GI50", "setting": "SNB-19", "value": "30.8 µM (inactive)"},
      {"measurement": "GI50", "setting": "KM12", "value": "41.6 µM (inactive)"},
      {"measurement": "GI50", "setting": "MCF7", "value": "29.9 µM (inactive)"},
      {"measurement": "GI50", "setting": "MDA-MB-435", "value": "34.8 µM (inactive)"},
      {"measurement": "GI50", "setting": "DU-145", "value": "33.7 µM (inactive)"},
      {"measurement": "GI50", "setting": "HOP-92", "value": "27.1 µM (inactive)"},
      {"measurement": "GI50", "setting": "A549", "value": "33.4 µM (inactive)"},
      {"measurement": "GI50", "setting": "LOX IMVI", "value": "34.1 µM (inactive)"},
      {"measurement": "GI50", "setting": "RXF 393", "value": "14.5 µM (inactive)"},
      {"measurement": "GI50", "setting": "BT-549", "value": "44.3 µM (inactive)"},
      {"measurement": "GI50", "setting": "COLO 205", "value": "29.5 µM (inactive)"},
      {"measurement": "GI50", "setting": "IGROV-1", "value": "37.4 µM (inactive)"},
      {"measurement": "GI50", "setting": "SK-MEL-28", "value": "36.4 µM (inactive)"},
      {"measurement": "GI50", "setting": "CAKI-1", "value": "20.9 µM (inactive)"},
      {"measurement": "GI50", "setting": "OVCAR-5", "value": "56.4 µM (inactive)"},
      {"measurement": "GI50", "setting": "SF-295", "value": "24 µM (inactive)"},
      {"measurement": "GI50", "setting": "M14", "value": "25.5 µM (inactive)"},
      {"measurement": "GI50", "setting": "SF-268", "value": "22.9 µM (inactive)"},
      {"measurement": "GI50", "setting": "SR", "value": "32.7 µM (inactive)"},
      {"measurement": "GI50", "setting": "NCI-H226", "value": "23.7 µM (inactive)"},
      {"measurement": "GI50", "setting": "HOP-62", "value": "30.4 µM (inactive)"},
      {"measurement": "GI50", "setting": "TK-10", "value": "34.5 µM (inactive)"},
      {"measurement": "GI50", "setting": "CCRF-CEM", "value": "29.8 µM (inactive)"},
      {"measurement": "GI50", "setting": "NCI/ADR-RES", "value": "36.8 µM (inactive)"},
      {"measurement": "GI50", "setting": "SW-620", "value": "38.5 µM (inactive)"},
      {"measurement": "GI50", "setting": "SK-MEL-5", "value": "21.6 µM (inactive)"},
      {"measurement": "GI50", "setting": "UACC-257", "value": "29.6 µM (inactive)"},
      {"measurement": "GI50", "setting": "HCC 2998", "value": "32.1 µM (inactive)"},
      {"measurement": "GI50", "setting": "OVCAR-4", "value": "41.8 µM (inactive)"},
      {"measurement": "GI50", "setting": "NCI-H23", "value": "34 µM (inactive)"},
      {"measurement": "GI50", "setting": "OVCAR-8", "value": "38.9 µM (inactive)"},
      {"measurement": "GI50", "setting": "SNB-75", "value": "24.8 µM (inactive)"},
      {"measurement": "GI50", "setting": "U-251", "value": "37.7 µM (inactive)"},
      {"measurement": "GI50", "setting": "SF-539", "value": "23.5 µM (inactive)"},
      {"measurement": "GI50", "setting": "NCI-H522", "value": "25.1 µM (inactive)"},
      {"measurement": "GI50", "setting": "EKVX", "value": "36.4 µM (inactive)"}
    ]}
  ]
}
